# Data published in PMC4821163 (Organic letters, 2016).
# Legend:
# MCF-10A = format: cell-based; conditions: for Selectivity index (SI), overall statement: tested cancer cell lines, MCF-10A as reference nontumor cell line
# Jurkat = format: cell-based; conditions: for Selectivity index (SI) over MCF-10A cells: IC50 MCF-10A divided by IC50 Jurkat
# U937 = format: cell-based; conditions: for Selectivity index (SI) over MCF-10A cells: IC50 MCF-10A divided by IC50 U937
# NIH/3T3 = format: cell-based; conditions: read-out: Cell cytotoxicity IC50; NIH/3T3 nontumor cell line
# cancer cell lines = conditions: several cancer cell lines; cited from earlier work
# MCF7 = format: cell-based; conditions: IC50 MCF-10A divided by IC50 MCF7
# HeLa = format: cell-based; conditions: for Selectivity index (SI) over MCF-10A cells: IC50 MCF-10A divided by IC50 HeLa
# MDA-MB-231 = format: cell-based; conditions: IC50 MCF-10A divided by IC50 MDA-MB-231
SMILES,"IC50 (MCF-10A; read-out: Cell cytotoxicity IC50, MCF-10A nontumor cell line) [nM]","Selectivity index (SI), overall statement (MCF-10A)",Selectivity index (SI) over MCF-10A cells (Jurkat),"IC50 (Jurkat; read-out: Cell cytotoxicity IC50, Jurkat cells) [nM]",Selectivity index (SI) over MCF-10A cells (U937),"IC50 (U937; read-out: Cell cytotoxicity IC50, U937 cells) [nM]",IC50 (NIH/3T3) [nM],"IC50 values against cancer cell growth, in words (cancer cell lines)",Selectivity index (SI) over MCF-10A cells (MCF7),Selectivity index (SI) over MCF-10A cells (HeLa),"IC50 (HeLa; read-out: Cell cytotoxicity IC50, HeLa cells) [nM]",Selectivity index (SI) over MCF-10A cells (MDA-MB-231)
C/C=C(\C)C(=O)O[C@@H]1[C@@H](O)[C@@H]2O[C@H]3[C@H](O[C@@H](CCCCC)CCCCCCC(=O)CCC(=O)OC[C@@H](O2)[C@H]1OC(=O)/C=C/c1ccccc1)O[C@H](C)[C@H](OC(C)=O)[C@@H]3O [ipomoeassin F],5.4,< 1,0.89,6.1,1,5.4,16.8,single-digit nanomolar range,0.12,0.33,16.4,0.83
CC(=O)O[C@H]1C(=O)[C@@]2(C)[C@H]([C@H](OC(=O)c3ccccc3)[C@]3(O)C[C@H](OC(=O)[C@H](O)[C@@H](NC(=O)c4ccccc4)c4ccccc4)C(C)=C1C3(C)C)[C@]1(OC(C)=O)CO[C@@H]1C[C@@H]2O [paclitaxel],,good selectivity in general,14.6,,15.2,,,,3.73,25.6,,8.04
